Measurements published in the NIST ThermoML archive (doi:10.1016/j.jct.2010.07.016).
± gives the expanded uncertainty stated by the source.

What was measured:
[1] = xn = mol fraction of the nth substance listed; conditions: 308.15 K, 101 kPa, Liquid; for excess molar volume: Direct dilatometry; for speed of sound: Linear variable-path acoustic interferometer
[2] = excess molar enthalpy (molar enthalpy of mixing); xn = mol fraction of the nth substance listed; conditions: 308.15 K, 101 kPa, Liquid, Drop calorimeter

**Q.** With `Cc1ccccc1C` [1,2-dimethylbenzene] + C1CCOCC1 as the compound, how does the excess molar volume ([1]; x2 = 0.0536) read?
**A.** -1.2e-08 ± 2e-09 m3/mol

**Q.** And the excess molar volume ([1]; x2 = 0.0643)?
**A.** -1.4e-08 ± 2e-09 m3/mol

**Q.** And the excess molar volume ([1]; x2 = 0.0805)?
**A.** -1.7e-08 ± 2e-09 m3/mol

**Q.** And the excess molar volume ([1]; x2 = 0.1127)?
**A.** -2.3e-08 ± 2e-09 m3/mol

**Q.** And the excess molar volume ([1]; x2 = 0.1816)?
**A.** -3.4e-08 ± 2e-09 m3/mol

**Q.** And the excess molar volume ([1]; x2 = 0.2975)?
**A.** -4.7e-08 ± 2e-09 m3/mol

**Q.** What about the excess molar volume ([1]; x2 = 0.3954) of the same compound?
**A.** -5.3e-08 ± 2e-09 m3/mol

**Q.** What about the excess molar volume ([1]; x2 = 0.4935) of the same compound?
**A.** -5.5e-08 ± 2e-09 m3/mol

**Q.** And the excess molar volume ([1]; x2 = 0.52)?
**A.** -5.4e-08 ± 2e-09 m3/mol

**Q.** And the excess molar volume ([1]; x2 = 0.5642)?
**A.** -5.3e-08 ± 2e-09 m3/mol

**Q.** And the excess molar volume ([1]; x2 = 0.6421)?
**A.** -4.8e-08 ± 2e-09 m3/mol

**Q.** What about the excess molar volume ([1]; x2 = 0.7314) of the same compound?
**A.** -4e-08 ± 2e-09 m3/mol

**Q.** What about the excess molar volume ([1]; x2 = 0.8832) of the same compound?
**A.** -1.9e-08 ± 2e-09 m3/mol

**Q.** What about the excess molar volume ([1]; x2 = 0.9228) of the same compound?
**A.** -1.3e-08 ± 2e-09 m3/mol

**Q.** What about the speed of sound ([1]; x2 = 0.0854) of the same compound?
**A.** 1319 ± 3 m/s

**Q.** What about the speed of sound ([1]; x2 = 0.1494) of the same compound?
**A.** 1315 ± 3 m/s

**Q.** What about the speed of sound ([1]; x2 = 0.2134) of the same compound?
**A.** 1309 ± 3 m/s

**Q.** What about the speed of sound ([1]; x2 = 0.2834) of the same compound?
**A.** 1303 ± 3 m/s

**Q.** What about the speed of sound ([1]; x2 = 0.3778) of the same compound?
**A.** 1293 ± 3 m/s

**Q.** And the speed of sound ([1]; x2 = 0.4756)?
**A.** 1281 ± 3 m/s

**Q.** And the speed of sound ([1]; x2 = 0.5132)?
**A.** 1277 ± 3 m/s

**Q.** What about the speed of sound ([1]; x2 = 0.5668) of the same compound?
**A.** 1270 ± 3 m/s

**Q.** And the speed of sound ([1]; x2 = 0.6124)?
**A.** 1265 ± 3 m/s

**Q.** What about the speed of sound ([1]; x2 = 0.7035) of the same compound?
**A.** 1254 ± 3 m/s

**Q.** And the speed of sound ([1]; x2 = 0.7866)?
**A.** 1245 ± 3 m/s

**Q.** What about the speed of sound ([1]; x2 = 0.8645) of the same compound?
**A.** 1237 ± 3 m/s

**Q.** What about the speed of sound ([1]; x2 = 0.9344) of the same compound?
**A.** 1230 ± 3 m/s

**Q.** What about the speed of sound ([1]; x2 = 0.9545) of the same compound?
**A.** 1228 ± 3 m/s

**Q.** What about the excess molar enthalpy ([2]; x2 = 0.0587) of the same compound?
**A.** -0.00636 ± 0.000263 kcal/mol

**Q.** And the excess molar enthalpy ([2]; x2 = 0.0691)?
**A.** -0.00729 ± 0.000263 kcal/mol

**Q.** And the excess molar enthalpy ([2]; x2 = 0.0838)?
**A.** -0.00851 ± 0.000287 kcal/mol

**Q.** And the excess molar enthalpy ([2]; x2 = 0.1451)?
**A.** -0.0123 ± 0.000359 kcal/mol

**Q.** And the excess molar enthalpy ([2]; x2 = 0.1809)?
**A.** -0.0137 ± 0.000382 kcal/mol

**Q.** What about the excess molar enthalpy ([2]; x2 = 0.2454) of the same compound?
**A.** -0.0147 ± 0.000406 kcal/mol

**Q.** What about the excess molar enthalpy ([2]; x2 = 0.3023) of the same compound?
**A.** -0.0141 ± 0.000382 kcal/mol

**Q.** What about the excess molar enthalpy ([2]; x2 = 0.3872) of the same compound?
**A.** -0.0111 ± 0.000335 kcal/mol

**Q.** What about the excess molar enthalpy ([2]; x2 = 0.4425) of the same compound?
**A.** -0.00817 ± 0.000287 kcal/mol

**Q.** And the excess molar enthalpy ([2]; x2 = 0.5752)?
**A.** 0.000574 ± 0.000191 kcal/mol

**Q.** What about the excess molar enthalpy ([2]; x2 = 0.647) of the same compound?
**A.** 0.00526 ± 0.000239 kcal/mol

**Q.** And the excess molar enthalpy ([2]; x2 = 0.7443)?
**A.** 0.0101 ± 0.000311 kcal/mol

**Q.** And the excess molar enthalpy ([2]; x2 = 0.8495)?
**A.** 0.0112 ± 0.000335 kcal/mol

**Q.** And the excess molar enthalpy ([2]; x2 = 0.9437)?
**A.** 0.00638 ± 0.000263 kcal/mol

**Q.** Which results are given for `Cc1cccc(C)c1` [1,3-dimethylbenzene] + C1CCOCC1?
**A.** excess molar volume ([1]; x2 = 0.0626): -6e-09 ± 2e-09 m3/mol; excess molar volume ([1]; x2 = 0.1258): -1.2e-08 ± 2e-09 m3/mol; excess molar volume ([1]; x2 = 0.1731): -1.7e-08 ± 2e-09 m3/mol; excess molar volume ([1]; x2 = 0.2459): -2.2e-08 ± 2e-09 m3/mol; excess molar volume ([1]; x2 = 0.3452): -2.8e-08 ± 2e-09 m3/mol; excess molar volume ([1]; x2 = 0.4411): -3.2e-08 ± 2e-09 m3/mol; excess molar volume ([1]; x2 = 0.4801): -3.2e-08 ± 2e-09 m3/mol; excess molar volume ([1]; x2 = 0.5413): -3.2e-08 ± 2e-09 m3/mol; excess molar volume ([1]; x2 = 0.6033): -3.2e-08 ± 2e-09 m3/mol; excess molar volume ([1]; x2 = 0.6541): -3e-08 ± 2e-09 m3/mol; excess molar volume ([1]; x2 = 0.7113): -2.7e-08 ± 2e-09 m3/mol; excess molar volume ([1]; x2 = 0.7852): -2.2e-08 ± 2e-09 m3/mol; excess molar volume ([1]; x2 = 0.8934): -1.2e-08 ± 2e-09 m3/mol; excess molar volume ([1]; x2 = 0.9229): -9e-09 ± 2e-09 m3/mol; speed of sound ([1]; x2 = 0.0923): 1277 ± 3 m/s; speed of sound ([1]; x2 = 0.1515): 1273 ± 3 m/s; speed of sound ([1]; x2 = 0.2161): 1269 ± 3 m/s; speed of sound ([1]; x2 = 0.285): 1264 ± 3 m/s; speed of sound ([1]; x2 = 0.3278): 1261 ± 3 m/s; speed of sound ([1]; x2 = 0.3611): 1259 ± 3 m/s; speed of sound ([1]; x2 = 0.4081): 1256 ± 3 m/s; speed of sound ([1]; x2 = 0.4621): 1253 ± 3 m/s; speed of sound ([1]; x2 = 0.5179): 1250 ± 3 m/s; speed of sound ([1]; x2 = 0.5568): 1248 ± 3 m/s; speed of sound ([1]; x2 = 0.6179): 1244 ± 3 m/s; speed of sound ([1]; x2 = 0.7078): 1239 ± 3 m/s; speed of sound ([1]; x2 = 0.7889): 1235 ± 3 m/s; speed of sound ([1]; x2 = 0.8646): 1231 ± 3 m/s; excess molar enthalpy ([2]; x2 = 0.0474): -0.00437 ± 0.000215 kcal/mol; excess molar enthalpy ([2]; x2 = 0.086): -0.0071 ± 0.000263 kcal/mol; excess molar enthalpy ([2]; x2 = 0.1141): -0.00863 ± 0.000287 kcal/mol; excess molar enthalpy ([2]; x2 = 0.1754): -0.0107 ± 0.000335 kcal/mol; excess molar enthalpy ([2]; x2 = 0.26): -0.011 ± 0.000335 kcal/mol; excess molar enthalpy ([2]; x2 = 0.3488): -0.00872 ± 0.000287 kcal/mol; excess molar enthalpy ([2]; x2 = 0.4432): -0.00416 ± 0.000215 kcal/mol; excess molar enthalpy ([2]; x2 = 0.4765): -0.0022 ± 0.000215 kcal/mol; excess molar enthalpy ([2]; x2 = 0.5624): 0.00311 ± 0.000215 kcal/mol; excess molar enthalpy ([2]; x2 = 0.6834): 0.00978 ± 0.000311 kcal/mol; excess molar enthalpy ([2]; x2 = 0.7603): 0.0122 ± 0.000359 kcal/mol; excess molar enthalpy ([2]; x2 = 0.8001): 0.0126 ± 0.000359 kcal/mol; excess molar enthalpy ([2]; x2 = 0.8744): 0.0112 ± 0.000335 kcal/mol; excess molar enthalpy ([2]; x2 = 0.9453): 0.00643 ± 0.000263 kcal/mol
